From patent publication EP1247803A2, “Indolinone compounds suitable for modulation of protein kinases” (Sugen, Inc., priority 1996, dated 1998) come the findings set out here.

Each structure is given as a SMILES string.

For one assay, the target named is T1, EGFR (Homo sapiens, UniProt P00533).
T1 construct: Add 7 ug A431 cell lysate per well (EGFR source); endogenous in cells; host or cells: A431
Description: EGFR ELISA assay (in vitro kinase activity, EGFR captured from A431 cell lysate). The assay is classed as biochemical. Details: concentration or dose not given beside the values. The method in brief:
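EGFR from A431 lysate was captured on anti-EGFR antibody-coated plates and preincubated with compounds for 30 min. Autophosphorylation ran 5 min with 3 uM ATP and 5 mM MnCl2 (final), stopped with 20 mM EDTA. Phosphotyrosine was detected by anti-pTyr ELISA with ABTS/H2O2, read at 410 nm.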
(An ELISA detects its analyte on a solid surface through an enzyme-linked reagent.)

A further assay has as its system MET. The assay is described as follows: MET biochemical kinase assay. More on the design: species or system human; concentration or dose not given beside the values. The method in brief: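 MET from cell lysates captured on ELISA plates via rabbit anti-MET cytoplasmic-domain antibody; compounds added and kinase reaction run in ATP and divalent-metal buffer. Receptor phosphotyrosine detected with HRP-conjugated anti-phosphotyrosine antibody and TMB colorimetry.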

T1 sequence (P00533 25-1210): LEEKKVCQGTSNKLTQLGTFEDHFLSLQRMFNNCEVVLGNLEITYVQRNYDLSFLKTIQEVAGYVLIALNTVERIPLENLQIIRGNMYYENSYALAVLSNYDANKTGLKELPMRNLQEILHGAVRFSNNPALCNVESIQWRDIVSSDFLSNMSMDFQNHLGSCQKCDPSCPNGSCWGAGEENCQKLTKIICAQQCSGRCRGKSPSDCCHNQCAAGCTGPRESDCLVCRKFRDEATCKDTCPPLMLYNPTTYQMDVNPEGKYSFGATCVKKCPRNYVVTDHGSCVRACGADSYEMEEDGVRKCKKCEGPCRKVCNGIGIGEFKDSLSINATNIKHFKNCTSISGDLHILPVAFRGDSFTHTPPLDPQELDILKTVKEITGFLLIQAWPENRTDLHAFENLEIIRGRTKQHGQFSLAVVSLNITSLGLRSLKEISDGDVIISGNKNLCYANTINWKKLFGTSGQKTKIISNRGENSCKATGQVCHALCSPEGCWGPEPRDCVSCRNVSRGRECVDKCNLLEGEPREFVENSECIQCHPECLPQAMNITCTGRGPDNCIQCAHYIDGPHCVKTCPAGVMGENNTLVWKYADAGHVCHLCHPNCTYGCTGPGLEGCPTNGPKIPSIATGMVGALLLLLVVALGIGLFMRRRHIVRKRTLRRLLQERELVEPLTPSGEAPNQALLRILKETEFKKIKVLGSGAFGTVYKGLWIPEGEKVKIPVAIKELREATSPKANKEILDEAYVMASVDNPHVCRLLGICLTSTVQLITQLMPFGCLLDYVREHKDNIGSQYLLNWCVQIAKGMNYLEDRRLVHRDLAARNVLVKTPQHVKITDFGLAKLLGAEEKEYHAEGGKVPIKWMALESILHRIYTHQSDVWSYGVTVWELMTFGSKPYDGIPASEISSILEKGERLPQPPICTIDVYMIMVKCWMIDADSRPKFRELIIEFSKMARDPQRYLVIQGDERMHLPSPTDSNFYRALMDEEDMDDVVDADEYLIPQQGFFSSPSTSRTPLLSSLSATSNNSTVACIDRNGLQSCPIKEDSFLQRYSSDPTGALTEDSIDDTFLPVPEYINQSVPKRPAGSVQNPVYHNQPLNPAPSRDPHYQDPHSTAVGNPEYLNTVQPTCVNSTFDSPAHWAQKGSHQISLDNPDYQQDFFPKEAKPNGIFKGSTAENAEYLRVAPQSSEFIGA

For `CCc1cc(CC)c(C=C2C(=O)Nc3ccc(CCCl)cc32)[nH]1` [10727/G03], the “Biochem EGFR %Inhibition” value on EGFR stood at 19.4%. For the same compound, the “Met Kinase % Inhibition” value with MET is reported as 40.5%.
With `O=C1Nc2ccc(CCCl)cc2C1=Cc1cc(Cl)cc(Br)c1O` [10727/G04], the “Biochem EGFR %Inhibition” value at EGFR was 80.6%. Further, the “Met Kinase % Inhibition” value with MET came out at 94.0%.
`O=C1Nc2ccc(CCCl)cc2C1=Cc1ccccc1Sc1ccc(Cl)cc1` [10727/G05]: on EGFR, the “Biochem EGFR %Inhibition” value worked out at 11.2%. Besides, in the assay with MET, the “Met Kinase % Inhibition” value is recorded as 7.1%.
For `O=C1Nc2ccc(CCCl)cc2C1=Cc1cc2c(cc1Cl)OCO2` [10727/G06], in that order: -12.1% and 31.1%.
The corresponding values for `O=C1Nc2ccc(CCCl)cc2C1=Cc1coc2ccccc2c1=O` [10727/G07] are 5.4% and 29.6%.
Take `N#Cc1cccc(C=C2C(=O)Nc3ccc(CCCl)cc32)c1` [10727/G08]: at EGFR, the “Biochem EGFR %Inhibition” value is on record as -19.6%. Also, the “Met Kinase % Inhibition” value in the assay with MET was 21.8%.
For the compound `N#Cc1ccc(C=C2C(=O)Nc3ccc(CCCl)cc32)cc1` [10727/G09], on EGFR, the “Biochem EGFR %Inhibition” value is on record as -9.7%. The “Met Kinase % Inhibition” value in the assay with MET was 18.8%.
In the case of `O=C1Nc2ccc(CCCl)cc2C1=Cc1cc(O)ccc1O` [10727/G10], the “Biochem EGFR %Inhibition” value at EGFR is listed as 85.1%. The “Met Kinase % Inhibition” value in the assay with MET is on record as 99.2%.
In the case of `COc1cccc(C=C2C(=O)Nc3ccc(CCCl)cc32)c1OC` [10727/G11], the “Biochem EGFR %Inhibition” value on EGFR is -3.5%. Moreover, the “Met Kinase % Inhibition” value in the assay with MET is given as -0.8%.
As to `COc1ccc(OC)c(C=C2C(=O)Nc3c(Br)cc(Br)cc32)c1` [10728/A02], the “Biochem EGFR %Inhibition” value at EGFR is reported as 9.2%. Also, the “Met Kinase % Inhibition” value in the assay on MET is recorded as 25.6%.
Turning to `COc1cccc(OC)c1C=C1C(=O)Nc2c(Br)cc(Br)cc21` [10728/A03], at EGFR, the “Biochem EGFR %Inhibition” value is recorded as -25.8%. For the same compound, the “Met Kinase % Inhibition” value in the assay with MET was 29.2%.
The corresponding values for `COc1cc(C=C2C(=O)Nc3c(Br)cc(Br)cc32)cc(OC)c1` [10728/A04] are 28.0% and 28.5%.
As for `COc1cc(N(C)C)ccc1C=C1C(=O)Nc2c(Br)cc(Br)cc21` [10728/A05], the “Biochem EGFR %Inhibition” value at EGFR worked out at 17.7%. Moreover, in the assay with MET, the “Met Kinase % Inhibition” value is 31.8%.
Take `O=C1Nc2c(Br)cc(Br)cc2C1=Cc1ccc2c(c1)Cc1ccccc1-2` [10728/A06]: the “Biochem EGFR %Inhibition” value at EGFR came out at 17.2%. Moreover, the “Met Kinase % Inhibition” value in the assay on MET was found to be 19.7%.
With `O=C1Nc2c(Br)cc(Br)cc2C1=Cc1cccc(C(F)(F)F)c1F` [10728/A07], the “Biochem EGFR %Inhibition” value at EGFR worked out at 59.6%. In addition, the “Met Kinase % Inhibition” value in the assay with MET is given as 28.5%.
Take `O=C1Nc2c(Br)cc(Br)cc2C1=Cc1cc(C(F)(F)F)ccc1F` [10728/A08]: the “Biochem EGFR %Inhibition” value on EGFR was 24.1%. Moreover, in the assay on MET, the “Met Kinase % Inhibition” value stood at 40.2%.
As for `O=C1Nc2c(Br)cc(Br)cc2C1=Cc1c(F)cccc1C(F)(F)F` [10728/A09], the “Biochem EGFR %Inhibition” value at EGFR turned out to be 19.3%. Moreover, the “Met Kinase % Inhibition” value in the assay on MET is 53.1%.
For `O=C(O)COc1ccccc1C=C1C(=O)Nc2c(Br)cc(Br)cc21` [10728/A10], in that order: -3.4% and 77.2%.
`COc1cc(C=C2C(=O)Nc3c(Br)cc(Br)cc32)cc2c1OCO2` [10728/A11]: the “Biochem EGFR %Inhibition” value on EGFR is recorded as -0.6%. For the same compound, the “Met Kinase % Inhibition” value in the assay with MET amounted to 58.8%.
In the case of `COc1ccc(OC)c(C=C2C(=O)Nc3ccc(I)cc32)c1` [10728/B02], at EGFR, the “Biochem EGFR %Inhibition” value is on record as -10.5%. Besides, the “Met Kinase % Inhibition” value in the assay with MET is recorded as 61.2%.
For the compound `COc1cccc(OC)c1C=C1C(=O)Nc2ccc(I)cc21` [10728/B03], on EGFR, the “Biochem EGFR %Inhibition” value is on record as -36.6%. Further, in the assay with MET, the “Met Kinase % Inhibition” value is listed as 74.4%.
As for `COc1cc(C=C2C(=O)Nc3ccc(I)cc32)cc(OC)c1` [10728/B04], on EGFR, the “Biochem EGFR %Inhibition” value is given as -2.0%. In addition, in the assay on MET, the “Met Kinase % Inhibition” value is listed as 67.2%.
Regarding `COc1cc(N(C)C)ccc1C=C1C(=O)Nc2ccc(I)cc21` [10728/B05], the “Biochem EGFR %Inhibition” value on EGFR is given as 26.9%. Further, the “Met Kinase % Inhibition” value in the assay with MET stood at 60.4%.
Take `O=C1Nc2ccc(I)cc2C1=Cc1cccc(C(F)(F)F)c1F` [10728/B07]: the “Biochem EGFR %Inhibition” value at EGFR was 11.1%. Besides, the “Met Kinase % Inhibition” value in the assay with MET came out at 82.2%.
As to `O=C1Nc2ccc(I)cc2C1=Cc1cc(C(F)(F)F)ccc1F` [10728/B08], on EGFR, the “Biochem EGFR %Inhibition” value is given as 34.7%. In the assay on MET, the “Met Kinase % Inhibition” value stood at 77.0%.
For `O=C1Nc2ccc(I)cc2C1=Cc1c(F)cccc1C(F)(F)F` [10728/B09], at EGFR, the “Biochem EGFR %Inhibition” value is recorded as 31.7%. The “Met Kinase % Inhibition” value in the assay with MET amounted to 81.7%.
For `O=C(O)COc1ccccc1C=C1C(=O)Nc2ccc(I)cc21` [10728/B10], the “Biochem EGFR %Inhibition” value at EGFR was determined as 16.8%. Also, the “Met Kinase % Inhibition” value with MET amounted to 79.3%.
In the case of `COc1cc(C=C2C(=O)Nc3ccc(I)cc32)cc2c1OCO2` [10728/B11], the “Biochem EGFR %Inhibition” value on EGFR amounted to 48.2%. For the same compound, the “Met Kinase % Inhibition” value in the assay on MET turned out to be 80.3%.
As for `COc1ccc(OC)c(C=C2C(=O)Nc3ccc(Br)c(C)c32)c1` [10728/C02], the “Biochem EGFR %Inhibition” value at EGFR is listed as -35.4%. The “Met Kinase % Inhibition” value in the assay on MET is given as 15.5%.
For the compound `COc1cccc(OC)c1C=C1C(=O)Nc2ccc(Br)c(C)c21` [10728/C03], the “Biochem EGFR %Inhibition” value on EGFR is 9.7%. Further, in the assay on MET, the “Met Kinase % Inhibition” value was found to be 16.9%.
For `COc1cc(C=C2C(=O)Nc3ccc(Br)c(C)c32)cc(OC)c1` [10728/C04], at EGFR, the “Biochem EGFR %Inhibition” value is 16.1%. Moreover, in the assay with MET, the “Met Kinase % Inhibition” value came out at 33.6%.
`COc1cc(N(C)C)ccc1C=C1C(=O)Nc2ccc(Br)c(C)c21` [10728/C05]: on EGFR, the “Biochem EGFR %Inhibition” value was determined as 16.1%. In addition, the “Met Kinase % Inhibition” value with MET was 33.7%.
With `Cc1c(Br)ccc2c1C(=Cc1ccc3c(c1)Cc1ccccc1-3)C(=O)N2` [10728/C06], on EGFR, the “Biochem EGFR %Inhibition” value amounted to 4.2%. Further, the “Met Kinase % Inhibition” value with MET came out at 22.9%.
`Cc1c(Br)ccc2c1C(=Cc1cccc(C(F)(F)F)c1F)C(=O)N2` [10728/C07]: the “Biochem EGFR %Inhibition” value at EGFR is 8.3%. In the assay on MET, the “Met Kinase % Inhibition” value is 46.3%.
With `Cc1c(Br)ccc2c1C(=Cc1cc(C(F)(F)F)ccc1F)C(=O)N2` [10728/C08], the “Biochem EGFR %Inhibition” value on EGFR is 17.5%. Also, in the assay on MET, the “Met Kinase % Inhibition” value is given as 25.5%.
With `Cc1c(Br)ccc2c1C(=Cc1c(F)cccc1C(F)(F)F)C(=O)N2` [10728/C09], the “Biochem EGFR %Inhibition” value on EGFR is recorded as -6.8%. Besides, the “Met Kinase % Inhibition” value in the assay on MET was found to be 31.6%.
For `Cc1c(Br)ccc2c1C(=Cc1ccccc1OCC(=O)O)C(=O)N2` [10728/C10], the “Biochem EGFR %Inhibition” value at EGFR was 4.4%. Also, the “Met Kinase % Inhibition” value with MET is recorded as 28.7%.
In the case of `COc1cc(C=C2C(=O)Nc3ccc(Br)c(C)c32)cc2c1OCO2` [10728/C11], the “Biochem EGFR %Inhibition” value on EGFR is reported as 21.8%. In the assay with MET, the “Met Kinase % Inhibition” value is on record as 45.2%.
With `CNS(=O)(=O)c1ccc2c(c1)C(=Cc1cc(OC)ccc1OC)C(=O)N2` [10728/D02], the “Biochem EGFR %Inhibition” value at EGFR is 9.9%. For the same compound, the “Met Kinase % Inhibition” value with MET is given as 21.4%.
The corresponding values for `CNS(=O)(=O)c1ccc2c(c1)C(=Cc1c(OC)cccc1OC)C(=O)N2` [10728/D03] are 10.8% and 13.5%.
For `CNS(=O)(=O)c1ccc2c(c1)C(=Cc1cc(OC)cc(OC)c1)C(=O)N2` [10728/D04], the “Biochem EGFR %Inhibition” value at EGFR is recorded as -1.1%. Further, the “Met Kinase % Inhibition” value with MET is 23.1%.
Turning to `CNS(=O)(=O)c1ccc2c(c1)C(=Cc1ccc(N(C)C)cc1OC)C(=O)N2` [10728/D05], on EGFR, the “Biochem EGFR %Inhibition” value is given as 12.7%. Besides, in the assay with MET, the “Met Kinase % Inhibition” value is 29.5%.
As to `CNS(=O)(=O)c1ccc2c(c1)C(=Cc1ccc3c(c1)Cc1ccccc1-3)C(=O)N2` [10728/D06], at EGFR, the “Biochem EGFR %Inhibition” value is recorded as 5.8%. For the same compound, in the assay on MET, the “Met Kinase % Inhibition” value came to 23.2%.
